Measurements as given in patent US20100093662A1, “NOVEL AMPHIPHILIC CYCLODEXTRIN DERIVATIVES” (CENTRE NATIONAL DE LA RECHERCHE SCIENTIFIQUE-CNRS-, priority 2006, published 2010).

Assay: Size and polydispersion of white homogenous nanospheres (quasi-elastic diffusion of light), physical stability over time
Type: physicochemical
Method: The method used to prepare white homogenous nanospheres consists in introducing an organic phase of acetone (or tetrahydrofurane) and an amphiphilic cyclodextrin derivative from the invention (1 mg·mL^−1) in an aqueous phase of equivalent volume or a double volume (distilled water), under magnetic stirring (500 r.p.m.) at 25° C. After nanoprecipitation, the organic solvent is eliminated under reduced pressure at +35° C. The aqueous suspension presenting an opalescent to milky appearance (according to the products used) is then concentrated until the final volume desired is obtained, then filtered on a 0.8 μm filter (Millex AA, Millipore, France).
The colloid suspensions are then characterised as regards the granulometry (mean size and polydisperion) and, when they incorporate loaded amphiphilic cyclodextrins, by their zeta potential. The characterisation is carried out using the following methods:
The quasi-elastic diffusion of light is used. A Zetasizer 3000 apparatus equipped with a K7132 correlator (Malvern Instruments, RU) was used. The conditions for measurement are as follows: angle of detection 90°, temperature 25±0.1° C., apparent viscosity 0.89 mPa·s. Before measuring the size, samples are diluted in distilled water if necessary. The hydrodynamic diameter (mean Z) and polydispersion index (PI) of the nanoparticles in suspension are calculated in intensity by the cumulant method by carrying out 3 measurements on the same sample. The value of the hydrodynamic diameter is calculated using the measurement of the translational coefficient of diffusion of particles with Brownian movement. An NanoZS apparatus (Malvern Instruments) was also used to measure the size of the nanocapsules. In the same way, the samples are diluted before measurement, if necessary in water added to Montanox 80 (trade mark).
The studies on the physical stability of particles were carried out over periods ranging from 1 month to 8 months. The corresponding data for a series of amphiphilic cyclodextrins in the invention are indicated in Table 1 providing the granulometric characteristics (mean size and polydispersion index or mean PI), with evolution over time, of different homogenous nanospheres derived from the compounds indicated in the left column, the reference number for said compounds corresponding to those of the compounds described in the above examples.

Mean size ± standard deviation (n = 3) (8 months) [nm]	PI (polydispersion index) (8 months)	Mean size ± standard deviation (n = 3) (initial) [nm]	PI (polydispersion index) (initial)	IP (polydispersion index) (3 months)	Mean size ± standard deviation (n = 3) (3 months) [nm]	IP (polydispersion index) (6 months)	Mean size ± standard deviation (n = 3) (6 months) [nm]	SMILES
236 ± 13	0.03	251 ± 62	0.08	–	–	–	–	CCCCCC(=O)O[C@@H]1[C@@H](OC(=O)CCCCC)[C@H]2O[C@H]3[C@H](OC(=O)CCCCC)[C@@H](OC(=O)CCCCC)[C@@H](O[C@H]4[C@H](OC(=O)CCCCC)[C@@H](OC(=O)CCCCC)[C@@H](O[C@H]5[C@H](OC(=O)CCCCC)[C@@H](OC(=O)CCCCC)[C@@H](O[C@H]6[C@H](OC(=O)CCCCC)[C@@H](OC(=O)CCCCC)[C@@H](O[C@H]7[C@H](OC(=O)CCCCC)[C@@H](OC(=O)CCCCC)[C@@H](O[C@H]8[C@H](OC(=O)CCCCC)[C@@H](OC(=O)CCCCC)[C@@H](O[C@@H]1[C@@H](CI)O2)O[C@@H]8CI)O[C@@H]7CI)O[C@@H]6CI)O[C@@H]5CI)O[C@@H]4CI)O[C@@H]3CI [compound no. 1, heptakis(6-desoxy-2,3-di-0-hexanoyl-6-iodo) cyclomaltoheptaose]
182 ± 22	0.01	238 ± 29	0.02	–	–	–	–	CCCCCC(=O)O[C@@H]1[C@@H](OC(=O)CCCCC)[C@H]2O[C@H]3[C@H](OC(=O)CCCCC)[C@@H](OC(=O)CCCCC)[C@@H](O[C@H]4[C@H](OC(=O)CCCCC)[C@@H](OC(=O)CCCCC)[C@@H](O[C@H]5[C@H](OC(=O)CCCCC)[C@@H](OC(=O)CCCCC)[C@@H](O[C@H]6[C@H](OC(=O)CCCCC)[C@@H](OC(=O)CCCCC)[C@@H](O[C@H]7[C@H](OC(=O)CCCCC)[C@@H](OC(=O)CCCCC)[C@@H](O[C@H]8[C@H](OC(=O)CCCCC)[C@@H](OC(=O)CCCCC)[C@@H](O[C@@H]1[C@@H](CBr)O2)O[C@@H]8CBr)O[C@@H]7CBr)O[C@@H]6CBr)O[C@@H]5CBr)O[C@@H]4CBr)O[C@@H]3CBr [compound no. 2, heptakis(6-bromo-6-desoxy-2,3-di-O-hexanoyl)cyclomaltoheptaose]
–	–	217 ± 17	0.04	0.03	206 ± 20	0.06	227 ± 26	CCCCCCCCCCCCCC(=O)O[C@@H]1[C@@H](OC(=O)CCCCCCCCCCCCC)[C@H]2O[C@H]3[C@H](OC(=O)CCCCCCCCCCCCC)[C@@H](OC(=O)CCCCCCCCCCCCC)[C@@H](O[C@H]4[C@H](OC(=O)CCCCCCCCCCCCC)[C@@H](OC(=O)CCCCCCCCCCCCC)[C@@H](O[C@H]5[C@H](OC(=O)CCCCCCCCCCCCC)[C@@H](OC(=O)CCCCCCCCCCCCC)[C@@H](O[C@H]6[C@H](OC(=O)CCCCCCCCCCCCC)[C@@H](OC(=O)CCCCCCCCCCCCC)[C@@H](O[C@H]7[C@H](OC(=O)CCCCCCCCCCCCC)[C@@H](OC(=O)CCCCCCCCCCCCC)[C@@H](O[C@H]8[C@H](OC(=O)CCCCCCCCCCCCC)[C@@H](OC(=O)CCCCCCCCCCCCC)[C@@H](O[C@@H]1[C@@H](CI)O2)O[C@@H]8CI)O[C@@H]7CI)O[C@@H]6CI)O[C@@H]5CI)O[C@@H]4CI)O[C@@H]3CI [compound no. 4, heptakis(6-desoxy-6-iodo-2,3-di-O-myristoyl)cyclomaltoheptaose]
–	–	244 ± 13	0.13	0.05	232 ± 22	0.03	242 ± 27	CCCCCCCCCCCCCC(=O)O[C@@H]1[C@@H](OC(=O)CCCCCCCCCCCCC)[C@H]2O[C@H]3[C@H](OC(=O)CCCCCCCCCCCCC)[C@@H](OC(=O)CCCCCCCCCCCCC)[C@@H](O[C@H]4[C@H](OC(=O)CCCCCCCCCCCCC)[C@@H](OC(=O)CCCCCCCCCCCCC)[C@@H](O[C@H]5[C@H](OC(=O)CCCCCCCCCCCCC)[C@@H](OC(=O)CCCCCCCCCCCCC)[C@@H](O[C@H]6[C@H](OC(=O)CCCCCCCCCCCCC)[C@@H](OC(=O)CCCCCCCCCCCCC)[C@@H](O[C@H]7[C@H](OC(=O)CCCCCCCCCCCCC)[C@@H](OC(=O)CCCCCCCCCCCCC)[C@@H](O[C@H]8[C@H](OC(=O)CCCCCCCCCCCCC)[C@@H](OC(=O)CCCCCCCCCCCCC)[C@@H](O[C@@H]1[C@@H](CBr)O2)O[C@@H]8CBr)O[C@@H]7CBr)O[C@@H]6CBr)O[C@@H]5CBr)O[C@@H]4CBr)O[C@@H]3CBr [compound no. 5, heptakis(6-bromo-6-desoxy-2,3-di-O-myristoyl)cyclomaltoheptaose]
–	–	123 ± 2	0.03	0.09	138 ± 2	–	–	CCCCCC(=O)O[C@@H]1[C@@H](OC(=O)CCCCC)[C@H]2O[C@H]3[C@H](OC(=O)CCCCC)[C@@H](OC(=O)CCCCC)[C@@H](O[C@H]4[C@H](OC(=O)CCCCC)[C@@H](OC(=O)CCCCC)[C@@H](O[C@H]5[C@H](OC(=O)CCCCC)[C@@H](OC(=O)CCCCC)[C@@H](O[C@H]6[C@H](OC(=O)CCCCC)[C@@H](OC(=O)CCCCC)[C@@H](O[C@H]7[C@H](OC(=O)CCCCC)[C@@H](OC(=O)CCCCC)[C@@H](O[C@H]8[C@H](OC(=O)CCCCC)[C@@H](OC(=O)CCCCC)[C@@H](O[C@@H]1[C@@H](CSCCN=C=S)O2)O[C@@H]8CSCCN=C=S)O[C@@H]7CSCCN=C=S)O[C@@H]6CSCCN=C=S)O[C@@H]5CSCCN=C=S)O[C@@H]4CSCCN=C=S)O[C@@H]3CSCCN=C=S [compound no. 9, heptakis[6-desoxy-2,3-di-0-hexanoyl-6-(2-isothiocyanatoethylthio)]cyclomaltoheptaose]
–	–	115 ± 31	0.16	–	–	–	–	CCCCCC(=O)OC1C2OC(CSCCNC(=S)NC)C(OC3OC(CSCCNC(=S)NC)C(OC4OC(CSCCNC(=S)NC)C(OC5OC(CSCCNC(=S)NC)C(OC6OC(CSCCNC(=S)NC)C(OC7OC(CSCCNC(=S)NC)C(OC8OC(CSCCNC(=S)NC)C(O2)C(OC(=O)CCCCC)C8OC(=O)CCCCC)C(OC(=O)CCCCC)C7OC(=O)CCCCC)C(OC(=O)CCCCC)C6OC(=O)CCCCC)C(OC(=O)CCCCC)C5OC(=O)CCCCC)C(OC(=O)CCCCC)C4OC(=O)CCCCC)C(OC(=O)CCCCC)C3OC(=O)CCCCC)C1OC(=O)CCCCC (stereo not drawn) [compound no. 13, heptakis[6-desoxy-2,3-di-0-hexanoyl-6-(2-(N′-methylthioureido)ethylthio)]cyclomaltoheptaose]

SMILES	Mean size ± standard deviation (n = 3) (8 months) [nm]	PI (polydispersion index) (8 months)	Mean size ± standard deviation (n = 3) (initial) [nm]	PI (polydispersion index) (initial)	IP (polydispersion index) (3 months)	Mean size ± standard deviation (n = 3) (3 months) [nm]	IP (polydispersion index) (6 months)	Mean size ± standard deviation (n = 3) (6 months) [nm]
CCCCCC(=O)O[C@@H]1[C@@H](OC(=O)CCCCC)[C@H]2O[C@H]3[C@H](OC(=O)CCCCC)[C@@H](OC(=O)CCCCC)[C@@H](O[C@H]4[C@H](OC(=O)CCCCC)[C@@H](OC(=O)CCCCC)[C@@H](O[C@H]5[C@H](OC(=O)CCCCC)[C@@H](OC(=O)CCCCC)[C@@H](O[C@H]6[C@H](OC(=O)CCCCC)[C@@H](OC(=O)CCCCC)[C@@H](O[C@H]7[C@H](OC(=O)CCCCC)[C@@H](OC(=O)CCCCC)[C@@H](O[C@H]8[C@H](OC(=O)CCCCC)[C@@H](OC(=O)CCCCC)[C@@H](O[C@@H]1[C@@H](CN=[N+]=[N-])O2)O[C@@H]8CN=[N+]=[N-])O[C@@H]7CN=[N+]=[N-])O[C@@H]6CN=[N+]=[N-])O[C@@H]5CN=[N+]=[N-])O[C@@H]4CN=[N+]=[N-])O[C@@H]3CN=[N+]=[N-] [compound no. 3, heptakis(6-azido-6-desoxy-2,3-di-O-hexanoyl)cyclomaltoheptaose]	–	–	181 ± 5	0.08	0.06	157 ± 8	0.18	206 ± 17
CCCCCC(=O)O[C@@H]1[C@@H](OC(=O)CCCCC)[C@H]2O[C@H]3[C@H](OC(=O)CCCCC)[C@@H](OC(=O)CCCCC)[C@@H](O[C@H]4[C@H](OC(=O)CCCCC)[C@@H](OC(=O)CCCCC)[C@@H](O[C@H]5[C@H](OC(=O)CCCCC)[C@@H](OC(=O)CCCCC)[C@@H](O[C@H]6[C@H](OC(=O)CCCCC)[C@@H](OC(=O)CCCCC)[C@@H](O[C@H]7[C@H](OC(=O)CCCCC)[C@@H](OC(=O)CCCCC)[C@@H](O[C@H]8[C@H](OC(=O)CCCCC)[C@@H](OC(=O)CCCCC)[C@@H](O[C@@H]1[C@@H](CSCCNC(=O)OC(C)(C)C)O2)O[C@@H]8CSCCNC(=O)OC(C)(C)C)O[C@@H]7CSCCNC(=O)OC(C)(C)C)O[C@@H]6CSCCNC(=O)OC(C)(C)C)O[C@@H]5CSCCNC(=O)OC(C)(C)C)O[C@@H]4CSCCNC(=O)OC(C)(C)C)O[C@@H]3CSCCNC(=O)OC(C)(C)C [compound no. 7, heptakis[6-(2-tert-butoxycarbonylaminoethylthio)-6-desoxy-2,3-di-0-hexanoyl]cyclomaltoheptaose]	194 ± 2	0.02	283 ± 29	0.06	–	–	–	–
